Test results: patent US7476650B2, “Enzyme inhibition” (Yale University, priority 1999, dated 2009)

Columns and labels:
[1] = biological target: T1, chymotrypsin-like activity of purified bovine erythrocyte 20S proteasome (Bos taurus, UniProt Q32KL2); experiment: Enzyme kinetic assay, chymotrypsin-like activity (Suc-LLVY-AMC); type: biochemical; details: for kobs/[I] for chymotryptic-like activity using Suc-LLVY-AMC: Examples 9 and 10, in M-1s-1; for kassoc = kobs/[I] (chymotrypsin-like activity inhibition): Table 5; for kobs/[I] Chymotrypsin-like: Table 3; for kassoc = kobs/[I] Chymotrypsin-like activity: Table 2, inhibitor concentration range in the line below
T1 construct: from tissue; host or cells: bovine erythrocytes (red blood cells)
Excerpt: (§1) We investigated the potency of inhibitors of various length. Mono-, di-,tri- and tetraleucine α′,β′-epoxides were ranked by determination of the kobs/[I] values for inhibition of the chymotrypsin-like, trypsin-like, and PGPH activities of purified bovine erythrocyte 20S proteasome.
(§2) Purified bovine erythrocyte proteasome was enzymatically assayed using a variety of different substrates and inhibitors. In order to evaluate the rates of proteolytic inactivation by inhibitors, kassociation (kobs/[I]) values were determined using fluorogenic peptide substrates over a range of inhibitor concentrations.

[2] = biological target: T2, trypsin-like activity of purified bovine erythrocyte 20S proteasome (Bos taurus, UniProt Q2TBP0); experiment: Enzyme kinetic assay, trypsin-like activity (Boc-LRR-AMC); type: biochemical; details: for kobs/[I] for tryptic-like activity using Boc-LRR-AMC: Examples 9 and 10; for inhibition of the trypsin-like activity of the proteasome: in words; for kassoc = kobs/[I] Trypsin-like activity: Table 2, inhibitor concentration range in the line below
T2 construct: from tissue; host or cells: bovine erythrocytes (red blood cells)
Excerpt: as §1, §2

[3] = system: bovine aortic endothelial (BAE) cells; experiment: BAE cell proliferation ([methyl-3H]-thymidine incorporation); type: cell-based
Description: BAE cells were cultured at 7% CO2 and were grown in DMEM supplemented with 10% FBS, 1% penicillin/streptomycin (GIBCO), and 1 mM sodium pyruvate.
Approximately 1000 BAE cells were plated into each well of a 96-well culture plate. After an overnight incubation, different concentrations of proteasome inhibitors were added and incubation was continued for another five days. […] Subsequently, 74 kBq of [methyl-^3H]-thymidine was added to each well of the plate and the plate was incubated for another additional 4 hours. Cells were harvested using a Skatron Cell Harvester and incorporated radioactivity was quantified using liquid scintillation. Proliferation of BAE cells was assayed in triplicate in the presence of different concentrations of peptide epoxides.
Perturbation of the proteasome activity can result in inhibition of cell growth, and can further lead to cell death at elevated concentration of the proteasome inhibitors. This provides an excellent cell-based assay to assess the importance of each catalytic activity of the 20S proteasome in degradation of proteins involved in cell growth. We measured inhibition of proliferation of bovine aortic endothelial (BAE) cells with our α′,β′-epoxyketone-based inhibitors with varying degree of specificity for the PGPH activity.

[4] = biological target: T3, PGPH activity of purified bovine erythrocyte 20S proteasome (Bos taurus, UniProt Q3MHN0); experiment: Enzyme kinetic assay, PGPH activity (Z-LLE-AMC); type: biochemical; details: for kobs/[I] for PGPH activity using Z-LLE-AMC: Examples 9 and 10; for kobs/[I] PGPH: Table 3; for selectivity for the PGPH activity: in words, data not shown for Glu compounds; for kassoc = kobs/[I] PGPH activity: Table 2, inhibitor concentration range in the line below
T3 construct: from tissue; host or cells: bovine erythrocytes (red blood cells)
Description: as §1, with “proteasome. Enzyme kinetic assays were performed as described in Example 2.” for “proteasome.”
as §2

cathepsin B = cathepsin B (Homo sapiens, UniProt P07858); experiment: Cathepsin B inhibition assay
[5] = Table 6, PGPH-directed inhibitors

kobs/[I] for chymotryptic-like activity using Suc-LLVY-AMC [1] | kassoc = kobs/[I] (chymotrypsin-like activity inhibition) [1] | kobs/[I] for tryptic-like activity using Boc-LRR-AMC [2] | kobs/[I] for PGPH activity using Z-LLE-AMC [4] | kobs/[I] Chymotrypsin-like [1] | inhibition of the trypsin-like activity of the proteasome [2] | kobs/[I] PGPH [4] | Structure (SMILES) | IC50 ([3]; Table 5, five days incubation) | IC50 [3, 5] | other results
8,500 | 8500 M⁻¹ s⁻¹ | not measurable | not measurable |  |  |  | CC(=O)N[C@@H](CC(C)C)C(=O)N[C@@H](Cc1ccccc1)C(=O)N[C@@H](CC(C)C)C(=O)N[C@@H](CC(C)C)C(=O)[C@@]1(C)CO1 [Ac-LFLL-epoxide] | 16 nM |  | 
16,000 | 16,000 M^−1 s^−1 | 4.1 M⁻¹ s⁻¹ | 20 |  |  |  | CC(=O)N[C@@H](CC(C)C)C(=O)N[C@@H](CC(C)C)C(=O)N[C@@H](C)C(=O)N[C@@H](CC(C)C)C(=O)[C@@]1(C)CO1 [Ac-LLAL-epoxide] | 34 nM |  | 
54,000 | 54,000 M^−1 s^−1 | not measurable | not measurable |  |  |  | CC(=O)N[C@@H](CC(C)C)C(=O)N[C@@H](CC(C)C)C(=O)N[C@@H](Cc1ccccc1)C(=O)N[C@@H](CC(C)C)C(=O)[C@@]1(C)CO1 [Ac-LLFL-epoxide] | 7 nM |  | 

The next lines start with the molecule.

Structure (SMILES) | kobs/[I] for chymotryptic-like activity using Suc-LLVY-AMC [1] | kassoc = kobs/[I] (chymotrypsin-like activity inhibition) [1] | kobs/[I] for tryptic-like activity using Boc-LRR-AMC [2] | kobs/[I] for PGPH activity using Z-LLE-AMC [4] | kobs/[I] Chymotrypsin-like [1] | inhibition of the trypsin-like activity of the proteasome [2] | kobs/[I] PGPH [4] | IC50 ([3]; Table 5, five days incubation) | IC50 [3, 5] | other results
CCCC[C@H](NC(C)=O)C(=O)N1CCC[C@H]1C(=O)N[C@@H](Cc1ccccc1)C(=O)N[C@@H](CC(C)C)C(=O)[C@@]1(C)CO1 [Ac-NorLPFL-Ex] |  |  |  |  | 1.9 ± 0.6 M⁻¹ s⁻¹ | no inhibition | 115 ± 15 M⁻¹ s⁻¹ |  | 53000 nM | selectivity: fold higher kobs/[I] for inhibition of the PGPH activity than the chymotrypsin-like activity ([4]; PGPH vs chymotrypsin-like): 60 fold
CC(C)CCCCC(=O)N1CCC[C@H]1C(=O)N[C@@H](Cc1ccccc1)C(=O)N[C@@H](CC(C)C)C(=O)[C@@]1(C)CO1 [Isooctanioc-PFL-Ex] |  |  |  |  | 190 ± 60 M⁻¹ s⁻¹ | no inhibition | 194 ± 4 M⁻¹ s⁻¹ |  | 600 nM | selectivity for the PGPH activity [4]: no selectivity
CC(C)C[C@H](NC(=O)[C@H](Cc1ccccc1)NC(=O)[C@@H]1CCCN1C(=O)c1ccc(N(C)C)cc1)C(=O)[C@@]1(C)CO1 [N-dimethylaminobenzoyl-PFL-EX] |  |  |  |  | 220 ± 70 M⁻¹ s⁻¹ | no inhibition | 150 ± 40 M⁻¹ s⁻¹ |  | 400 nM | selectivity for the PGPH activity [4]: no selectivity
CC(C)C[C@@H](/C=C/S(C)(=O)=O)NC(=O)[C@H](CC(C)C)NC(=O)[C@H](CC(C)C)NC(=O)Cc1cc(I)c(O)c([N+](=O)[O-])c1 [NLVS, reference compound] |  |  |  |  |  |  |  |  |  | inhibition of cathepsin B enzymatic activity (cathepsin B; at 10 μM): significantly inhibited; kassoc = kobs/[I] Chymotrypsin-like activity [1]: 6790 ± 919 M⁻¹ s⁻¹; kassoc = kobs/[I] Trypsin-like activity [2]: 5.3 ± 2.8 M⁻¹ s⁻¹; kassoc = kobs/[I] PGPH activity [4]: 6.4 ± 2.3 M⁻¹ s⁻¹
CC(C)C[C@H](NC(=O)[C@H](Cc1ccccc1)NC(=O)[C@@H]1CCCN1C(=O)c1cnccn1)C(=O)C1(C)CO1 (stereo partly drawn) [Pyrazinecarbonyl-PFL-Ex] |  |  |  |  | 520 ± 40 M⁻¹ s⁻¹ |  | 23 ± 3 M⁻¹ s⁻¹ |  | 400 nM | kobs/[I] Trypsin-like ([2]; Table 3): 3.7 ± 1.1 M⁻¹ s⁻¹
CC(C)[C@H](O)[C@@]12NC(=O)[C@H](C)[C@@H]1OC2=O [clasto-lactacystin β lactone, clasto-lactacystin β-lactone, reference compound] |  |  |  |  |  |  |  |  |  | inhibition of cathepsin B enzymatic activity (cathepsin B; at 50 μM): significantly inhibited; kassoc = kobs/[I] Chymotrypsin-like activity [1]: 8530 ± 280 M⁻¹ s⁻¹; kassoc = kobs/[I] Trypsin-like activity [2]: 253 ± 41 M⁻¹ s⁻¹; kassoc = kobs/[I] PGPH activity [4]: 37 ± 4.7 M⁻¹ s⁻¹
